In patent US20110245284A1, “Alkoxy- and Alkylthio-Substituted Anilinopyrimidines” (Bayer CropScience AG, priority 2008, published 2011):

Legend:
Leptosphaeria nodorum = Leptosphaeria nodorum test (wheat) / protective; type: in vivo; details: Parastagonospora nodorum, active compound concentration 500 ppm, evaluation 7-9 days after inoculation, read-out: efficacy
Description: Thereafter, the plants are placed in a greenhouse at 90% relative atmospheric humidity and a temperature of 22° C.

[1] = logP by LC-MS on reversed-phase columns (C 18), method [c], neutral range pH 7.8; type: physicochemical; details: pH 7.8
Description: (§1) The logP values were determined in accordance with EEC Directive 79/831 Annex V.A8 by HPLC (High Performance Liquid Chromatography) on reversed-phase columns (C 18), using the methods below:
[c] The LC-MS determination in the neutral range is carried out at pH 7.8 using the mobile phases 0.001 molar aqueous ammonium bicarbonate solution and acetonitrile, linear gradient from 10% acetonitrile to 95% acetonitrile.

Alternaria solani = experiment: Alternaria test (tomato) / protective; type: in vivo; details: 72 h, active compound concentration 100 ppm, evaluation 3 days after inoculation, read-out: efficacy
Description: The plants are then placed in an incubation cabinet at about 20° C. and 100% relative atmospheric humidity.

[2] = logP by LC-MS on reversed-phase columns (C 18), method [b], acidic range pH 2.7; type: physicochemical; details: pH 2.7, log p
Description: as §1
[b] The LC-MS determination in the acidic range is carried out at pH 2.7 using the mobile phases 0.1% aqueous formic acid and acetonitrile (contains 0.1% formic acid), linear gradient from 10% acetonitrile to 95% acetonitrile.

Pyrenophora teres = Pyrenophora teres test (barley) / protective; type: in vivo; details: 192 h, active compound concentration 500 ppm, evaluation 8 days after inoculation, read-out: efficacy
Description: After the spray coating has dried on, the plants are sprayed with a spore suspension of Pyrenophora teres. The plants remain in an incubation cabinet for 48 hours at 20° C. and 100% relative atmospheric humidity.

Sphaerotheca fuliginea = experiment: Sphaerotheca test (cucumber) / protective; type: in vivo; details: Podosphaera fuliginea, 168 h, active compound concentration 500 ppm, evaluation 7 days after inoculation, read-out: efficacy
Description: The plants are subsequently placed in a greenhouse at 70% relative atmospheric humidity and a temperature of 23° C.

Venturia inaequalis = experiment: Venturia test (apple) / protective; type: in vivo; details: 240 h, active compound concentration 100 ppm, evaluation 10 days after inoculation, read-out: efficacy
Description: After the spray coating has dried on, the plants are inoculated with an aqueous conidia suspension of the apple scab pathogen Venturia inaequalis and then remain for 1 day in an incubation cabinet at about 20° C. and 100% relative atmospheric humidity.

Rhizoctonia solani = experiment: Rhizoctonia test (rice) / protective; type: in vivo; details: 96 h, active compound concentration 250 ppm, evaluation 4 days after inoculation, read-out: efficacy
Pyricularia oryzae = experiment: whole plant or invertebrate; type: in vivo; details: 120 h, read-out: efficacy
Cochliobolus miyabeanus = experiment: Cochliobolus test (rice) / protective; details: Bipolaris oryzae, in Oryza sativa, 96 h, read-out: efficacy
Description: Cochliobolus Test (Rice)/Protective • Solvent: 28.5 parts by weight of acetone • Emulsifier: 1.5 parts by weight of alkylaryl polyglycol ether
1 day after the treatment, the plants are inoculated with an aqueous spore suspension of Cochliobolus miyabeanus. The plants are then placed in a greenhouse at 100% relative atmospheric humidity and 25° C.
Evaluation is carried out 4 days after the inoculation.

SMILES | pest or weed control at 500 ppm (Leptosphaeria nodorum) [%] | chromatographic logP [1] | pest or weed control at 100 ppm (Alternaria solani) [%] | chromatographic logP [2] | pest or weed control at 500 ppm (Pyrenophora teres) [%] | pest or weed control at 500 ppm (Sphaerotheca fuliginea) [%] | pest or weed control at 100 ppm (Venturia inaequalis) [%] | pest or weed control at 250 ppm (Rhizoctonia solani) [%] | pest or weed control at 250 ppm (Pyricularia oryzae) [%] | pest or weed control at 250 ppm (Cochliobolus miyabeanus) [%]
CCC(C)S(=O)(=O)C(C)c1cccc(Nc2ncc(Cl)c(NC3CC3)n2)c1 (stereo not shown) [Example 163] | ≥ 70 | 3.16 | ≥ 70 | 2.16 | ≥ 70 | ≥ 70 | ≥ 70 | – | – | –
CCCSc1cccc(Nc2ncc(C(F)(F)F)c(NC3CC3)n2)c1 [Example 109] | ≥ 70 | – | – | 4.44 | – | ≥ 70 | – | ≥ 80 | ≥ 80 | ≥ 80
CCCS(=O)(=O)c1cccc(Nc2ncc(Cl)c(NC3CCC3)n2)c1 [Example 103] | ≥ 70 | 3.27 | – | 2.6 | – | – | – | ≥ 80 | – | ≥ 80
CCC(C)[S+]([O-])C(C)c1cccc(Nc2ncc(Cl)c(NC3CC3)n2)c1 (stereo not shown) [Example 164] | ≥ 70 | 2.79 | ≥ 70 | 2 | ≥ 70 | ≥ 70 | ≥ 70 | – | – | –
CCCSc1cccc(Nc2ncc(Cl)c(NC3CCC3)n2)c1 [Example 5] | ≥ 70 | – | – | 3.66 | ≥ 70 | – | – | ≥ 80 | ≥ 80 | ≥ 80
CCSc1cccc(Nc2ncc(C(F)(F)F)c(NC3CC3)n2)c1 [Example 101] | ≥ 70 | 4.21 | – | 3.95 | ≥ 70 | ≥ 70 | – | ≥ 80 | ≥ 80 | ≥ 80
COCCCSc1cccc(Nc2ncc(Cl)c(NC3CC3)n2)c1 [Example 201] | ≥ 70 | 3.77 | – | 2.59 | – | – | – | ≥ 80 | ≥ 80 | ≥ 80
CCS(=O)(=O)C(C)c1cccc(Nc2ncc(Cl)c(NC3CC3)n2)c1 (stereo not shown) [Example 75] | ≥ 70 | – | – | 2.54 | ≥ 70 | ≥ 70 | – | – | ≥ 80 | ≥ 80
CCC1CC1Nc1nc(Nc2cccc(COC)c2)ncc1Cl (stereo not shown) [Example 108] | ≥ 70 | – | – | 2.46 | – | – | – | – | ≥ 80 | ≥ 80
CCCCSc1cccc(Nc2ncc(C(F)(F)F)c(NC3CC3)n2)c1 [Example 107] | ≥ 70 | – | – | 4.94 | – | – | – | ≥ 80 | ≥ 80 | ≥ 80
COC(C)c1cccc(Nc2ncc(C(F)(F)F)c(NC3CCC3)n2)c1 (stereo not shown) [Example 19] | ≥ 70 | – | – | 3.69 | ≥ 70 | – | – | ≥ 80 | ≥ 80 | ≥ 80
COCCOc1cccc(Nc2ncc(C(F)(F)F)c(NC3CCC3)n2)c1 [Example 71] | ≥ 70 | – | – | 3.33 | – | – | – | ≥ 80 | ≥ 80 | ≥ 80
COCc1cccc(Nc2ncc(Br)c(NC(C)C)n2)c1 [Example 70] | ≥ 70 | – | – | 1.92 | – | – | – | ≥ 80 | ≥ 80 | ≥ 80
CCNc1nc(Nc2cccc(COC)c2)ncc1Cl [Example 95] | ≥ 70 | 2.84 | – | 1.47 | – | – | – | – | ≥ 80 | ≥ 80
CC[S+]([O-])c1cccc(Nc2ncc(C(F)(F)F)c(NC3CCC3)n2)c1 (stereo not shown) [Example 119] | ≥ 70 | 2.81 | ≥ 70 | 2.61 | ≥ 70 | ≥ 70 | ≥ 70 | – | – | –
CCS(=O)(=O)c1cccc(Nc2ncc(C(F)(F)F)c(NC3CCC3)n2)c1 [Example 118] | ≥ 70 | 3.23 | ≥ 70 | 3.07 | ≥ 70 | ≥ 70 | ≥ 70 | – | – | –
CCC(C)SC(C)c1cccc(Nc2ncc(Cl)c(NC3CC3)n2)c1 (stereo not shown) [Example 133] | ≥ 70 | 5.08 | ≥ 70 | 3.79 | ≥ 70 | ≥ 70 | ≥ 70 | – | – | –
CCC[S+]([O-])c1cccc(Nc2ncc(Cl)c(NC3CC3)n2)c1 (stereo not shown) [Example 205] | ≥ 70 | 2.47 | ≥ 70 | 1.8 | ≥ 70 | ≥ 70 | ≥ 70 | – | – | –
CCCC[S+]([O-])c1cccc(Nc2ncc(Br)c(NC3CC3)n2)c1 (stereo not shown) [Example 126] | ≥ 70 | 2.86 | – | 2.28 | ≥ 70 | – | – | ≥ 80 | ≥ 80 | ≥ 80
CCCCSc1cccc(Nc2ncc(Br)c(NC3CC3)n2)c1 [Example 105] | ≥ 70 | 4.99 | – | 4 | – | – | – | ≥ 80 | ≥ 80 | ≥ 80
CCC[S+]([O-])c1cccc(Nc2ncc(Br)c(NC3CC3)n2)c1 (stereo not shown) [Example 102] | ≥ 70 | 2.5 | – | 1.04 | ≥ 70 | – | – | ≥ 80 | ≥ 80 | ≥ 80
COCc1cccc(Nc2ncc(C(F)(F)F)c(NCC3CC3)n2)c1 [Example 127] | ≥ 70 | – | – | – | ≥ 70 | ≥ 70 | – | ≥ 80 | ≥ 80 | ≥ 80
COCc1cccc(Nc2ncc(Cl)c(NC3CCCC3)n2)c1 [Example 7] | ≥ 70 | – | – | 2.23 | – | – | – | ≥ 80 | – | ≥ 80
CCS(=O)(=O)c1cccc(Nc2ncc(Cl)c(NC3CC3)n2)c1 [Example 113] | ≥ 70 | 2.48 | ≥ 70 | 1.87 | ≥ 70 | ≥ 70 | ≥ 70 | – | – | –
COCCOc1ccc(Nc2ncc(C(F)(F)F)c(NC3CC3)n2)cc1 [Example 82] | ≥ 70 | 3.06 | – | 2.3 | ≥ 70 | – | – | – | ≥ 80 | ≥ 80
CSC(C)c1cccc(Nc2ncc(Br)c(NC3CCC3)n2)c1 (stereo not shown) [Example 13] | ≥ 70 | – | ≥ 70 | 3.07 | ≥ 70 | ≥ 70 | ≥ 70 | – | ≥ 80 | –
CSC(C)c1cccc(Nc2ncc(Cl)c(NC3CCC3)n2)c1 (stereo not shown) [Example 14] | ≥ 70 | – | ≥ 70 | 2.82 | ≥ 70 | – | ≥ 70 | ≥ 80 | ≥ 80 | –
COCCOc1cccc(Nc2ncc(Cl)c(NC3CCC3)n2)c1 [Example 66] | ≥ 70 | – | ≥ 70 | 2.12 | ≥ 70 | – | ≥ 70 | – | ≥ 80 | –
